Data taken from patent publication US9464064B2, “HCV helicase inhibitors and methods of use thereof” (University of Kansas, priority 2011, dated 2016).
Starred links: 1 amine or outer side, 2 acyl side, 3 side chain; linkers in the order of their positions; H or OH if unused. Positions of bridges follow the written chain, without caps; N, C: chain ends. Non-standard residues stand in square brackets, D forms with d. Residues, ends and D or L forms follow the SMILES beside them. Chains are numbered I, II in the order given. Actinocin(9to1) = Cc1c2oc3c(C)ccc(C(=O)[*:1])c3nc-2c(C(=O)[*:2])c(N)c1=O; NMeV = CN[C@H](C(=O)O)C(C)C; Sar = CNCC(=O)O

Target: T1, HCV NS3 helicase NS3h_1b(con1) (Hepatitis C virus genotype 1b, UniProt Q9WMX2)
T1 construct: truncated C-terminally His-tagged NS3 proteins lacking the N-terminal protease, called NS3h; His-tag (C); made in house
T1 sequence (Q9WMX2 1192-1657): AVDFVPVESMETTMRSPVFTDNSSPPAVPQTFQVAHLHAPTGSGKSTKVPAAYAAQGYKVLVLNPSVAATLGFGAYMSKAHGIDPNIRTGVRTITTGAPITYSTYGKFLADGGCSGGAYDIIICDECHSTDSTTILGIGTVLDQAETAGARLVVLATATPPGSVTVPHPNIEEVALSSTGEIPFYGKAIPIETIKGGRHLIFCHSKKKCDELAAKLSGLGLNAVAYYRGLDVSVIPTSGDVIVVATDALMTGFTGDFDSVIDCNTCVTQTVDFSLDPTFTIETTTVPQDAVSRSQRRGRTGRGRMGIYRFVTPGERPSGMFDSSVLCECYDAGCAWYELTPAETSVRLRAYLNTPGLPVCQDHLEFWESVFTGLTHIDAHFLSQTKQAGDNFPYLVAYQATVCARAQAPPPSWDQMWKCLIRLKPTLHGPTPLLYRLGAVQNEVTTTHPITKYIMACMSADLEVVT
Assay: MBHA screen of NCI mechanistic set library at 20 μM (percent inhibition, compound interference)
Type: biochemical
Settings: compounds at 20 μM; for Inh. (%) (Inhibition): calculated from Equation 1
Procedure, shortened: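 Molecular beacon-based DNA unwinding assay; compounds screened at 20 μM in triplicate, with DMSO-only negative and 500 nM dT20 positive controls. Fluorescence (ex 643/em 670 nm) was read before and 30 min after adding ATP to 1 mM. Percent inhibition came from the change relative to DMSO controls; interference from pre-ATP fluorescence versus DMSO controls.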

[1] = MBHA with DNA substrate, assay interference calculated with Equation 2
[2] = assay interference calculated with Equation 2 (fluorescence vs DMSO-only controls before ATP)

Compound | Int.* (Ratio) (Interference) [1] | Inh. (%) (Inhibition) (MBHA with DNA substrate) | Inh. (%) (Inhibition) (MBHA with a DNA substrate) | Int.* (Ratio) (Interference) [2]
Cc1nc2c(nc1C)C(=O)c1ccccc1C2=O [Compound 602617] | 0.97 | 3.9 | – | –
CC(C)CCCC(=O)CCCCCCC(=O)CCN(O)C(=O)C(N)CO.O=S(=O)(O)O (stereo not shown) [Compound 106997] | 0.96 | −2.2 | – | –
O=C(O)c1ccc(NC(c2ccccc2)c2ccc3cccnc3c2O)cc1 (stereo not shown) [Compound 1011] | 0.87 | 3.7 | – | –
C[n+]1c(-c2ccc(/C=C/C=N/NC(=O)c3ccc(C(=O)N/N=C/C=C/c4ccc(-c5cn6ccccc6[n+]5C)cc4)cc3)cc2)cn2ccccc21.Cc1ccc(S(=O)(=O)O)cc1 [Compound 603169] | 0.22 | 26.2 | – | –
Cc1c2oc3c(C)ccc(C(=O)N[C@@H]4C(=O)N[C@H](C(C)C)C(=O)N5CCC[C@H]5C(=O)N(C)CC(=O)N(C)[C@@H](C(C)C)C(=O)O[C@@H]4C)c3nc-2c(C(=O)N[C@@H]2C(=O)N[C@H](C(C)C)C(=O)N3CCC[C@H]3C(=O)N(C)CC(=O)N(C)[C@@H](C(C)C)C(=O)O[C@@H]2C)c(N)c1=O [Compound 3053] (I: T[dV]P[Sar][NMeV] / II: T[dV]P[Sar][NMeV]; ester I:1-I:C, II:1-II:C; linker I:N-II:N via Actinocin(9to1)) | 0.55 | 67.5 | – | –
Clc1ccccc1C(c1ccccc1)(c1ccccc1)n1ccnc1 [Compound 257473] | 1.08 | −8.4 | – | –
Cc1cc(Cl)cc2c1NC(=O)C2(O)C(C(=O)c1ccccc1)c1ccccc1 (stereo not shown) [Compound 635435] | – | – | 6.9 | 0.96
CC1(c2cccc3ccccc23)OC(=O)c2ccccc21 (stereo not shown) [Compound 97703] | 1.11 | −9.3 | – | –
NC1N=C(c2ccc(Cl)cc2)C2=C(N1)c1ccccc1CC2 (stereo not shown) [Compound 682864] | 0.97 | −1.8 | – | –
N#CCCN(CCC#N)c1ccc(C=Nc2ccc(F)cc2)cc1 [Compound 620277] | 0.93 | 17.1 | – | –
Cc1cc(N(C)C)ccc1N=Nc1ccc2ncccc2c1 [Compound 680516] | 0.93 | −1.4 | – | –
O=C(CC(=O)c1ccccc1NC1=Cc2ccccc2C(=O)C1=O)C(=O)NC1=C(Cl)C(=O)c2ccccc2C1=O [Compound 641245] | 0.89 | −13.7 | – | –
CCCCC(/C=N/N=C(N)N)CC.Cc1cc(O)c(C(C)C)cc1S(=O)(=O)O [Compound 66300] | 1.21 | 2.2 | – | –
O=c1[nH]c2ccccc2n1C1CCN(CCCC(c2ccc(F)cc2)c2ccc(F)cc2)CC1 [Compound 170984] | 0.95 | 4.7 | – | –
O=Cc1cc([N+](=O)[O-])no1 [Compound 626433] | 0.98 | −2.2 | – | –
CN(C)/N=N/c1nc[nH]c1C(N)=O [Compound 45388] | 0.95 | 17.5 | – | –
Cn1c(=O)c2nc3sc4c(n3c2n(C)c1=O)C(=O)c1ccccc1C4=O [Compound 634568] | 0.90 | −14.8 | – | –
COc1cccc(/C=N\NC(=O)C(C)SC(C)C(=O)N/N=C/c2cccc(OC)c2)c1 (stereo not shown) [Compound 56737] | 1.12 | −7.2 | – | –
CC(O)CCC(=O)c1ccoc1 (stereo not shown) [Compound 349438] | – | – | 10.5 | 1.01
Cc1cc(NC(=O)NC(=O)c2ccccc2NC(=O)CN)ccc1Oc1ncc(Br)cn1.Cl [Compound 654259] | 0.98 | 1.1 | – | –
O=C1NC(=O)[C@H]2[C@H]3C=C[C@@H]([C@@H]12)[C@@H]1[C@H]2C(=O)NC(=O)[C@H]2[C@H]31 [Compound 284356] | 1.10 | 0.0 | – | –
COCC(=O)OC1CCn2c1nc1c2C(=O)C(C)=C(NC(C)=O)C1=O (stereo not shown) [Compound 651084] | – | – | 8.1 | 0.95
O=C1OC(c2ccccc2)=N/C1=C\c1ccc(N(CCCl)CCCl)cc1 [Compound 104117] | 1.06 | −14.5 | – | –
NC1CCCCC1N.[Cl-].[Cl-].[Pt+2] (stereo not shown) [Compound 265459] | 1.00 | −9.8 | – | –
COC1=C(C)C(=O)C2=C(C1=O)C(CO)N1C(C#N)C3CC4C(C1C2N1CCOC41)N3C (stereo not shown) [Compound 349644] | – | – | 7.1 | 0.91
COc1cc(/C=C/C(=O)CC(=O)/C=C/c2ccc(O)c(OC)c2)ccc1O [Compound 32982] | 0.90 | 15.0 | – | –
